In patent US8658604B2, “Template-fixed beta-hairpin peptidomimetics with protease inhibitory activity” (Polyphor Ltd, priority 2005, dated 2014):
Where a SMILES comes first, the peptide text is derived from it.

Assays:
[1] = target: Coagulation Factor Xa, from uman plasma (Homo sapiens, UniProt P00742); assay: Enzymatic assay, coagulation factor Xa
[2] = target: T1, Elastase from human neutrophils (Homo sapiens, UniProt P08246); assay: Enzymatic assay, elastase; conditions: Elastase IC50
T1 sequence (P08246 30-267): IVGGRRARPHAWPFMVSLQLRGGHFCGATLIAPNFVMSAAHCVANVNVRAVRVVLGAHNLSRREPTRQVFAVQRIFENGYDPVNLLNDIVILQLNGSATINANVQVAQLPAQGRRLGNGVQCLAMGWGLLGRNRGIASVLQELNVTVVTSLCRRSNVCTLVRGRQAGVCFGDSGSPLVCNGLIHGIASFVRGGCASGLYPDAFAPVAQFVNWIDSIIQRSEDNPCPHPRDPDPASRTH

Chymase, from human skin = target: T2, Chymase, from human skin (Homo sapiens, UniProt P23946); assay: Enzymatic assay, chymase
T2 sequence (P23946 22-247): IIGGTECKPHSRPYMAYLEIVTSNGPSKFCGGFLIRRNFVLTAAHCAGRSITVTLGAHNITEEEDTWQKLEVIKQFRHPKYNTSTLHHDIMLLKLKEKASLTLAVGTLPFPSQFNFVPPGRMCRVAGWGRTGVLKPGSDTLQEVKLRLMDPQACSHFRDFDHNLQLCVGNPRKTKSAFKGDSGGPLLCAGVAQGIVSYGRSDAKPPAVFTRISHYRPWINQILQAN

[3] = target: Chymotrypsin, from human pancreas (Homo sapiens, UniProt P17538); assay: Enzymatic assay, chymotrypsin; conditions: at 100 μM
[4] = system: Tryptase, from human lung; assay: Enzymatic assay, tryptase; conditions: at 100 μM
[5] = target: Trypsin, from human pancreas (Homo sapiens, UniProt P07477); assay: Enzymatic assay, trypsin; conditions: at 100 μM
[6] = target: Thrombin, from Human Plasma (Homo sapiens, UniProt P00734); assay: Enzymatic assay, thrombin
[7] = target: T3, CathepsinG, from human neutrophils (Homo sapiens, UniProt P08311); assay: Enzymatic assay, cathepsin G
T3 sequence (P08311 21-244): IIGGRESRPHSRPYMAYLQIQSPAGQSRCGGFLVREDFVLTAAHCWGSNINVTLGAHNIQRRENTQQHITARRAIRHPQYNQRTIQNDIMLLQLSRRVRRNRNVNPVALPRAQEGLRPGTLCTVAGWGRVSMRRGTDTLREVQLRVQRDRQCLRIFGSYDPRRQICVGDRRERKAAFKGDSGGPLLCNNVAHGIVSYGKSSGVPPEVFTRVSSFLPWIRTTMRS

[8] = target: Urokinase from human urine (Homo sapiens, UniProt P00749); assay: Enzymatic assay, urokinase

Sequence of Coagulation Factor Xa, from uman plasma (P00742 235-488 limits assumed): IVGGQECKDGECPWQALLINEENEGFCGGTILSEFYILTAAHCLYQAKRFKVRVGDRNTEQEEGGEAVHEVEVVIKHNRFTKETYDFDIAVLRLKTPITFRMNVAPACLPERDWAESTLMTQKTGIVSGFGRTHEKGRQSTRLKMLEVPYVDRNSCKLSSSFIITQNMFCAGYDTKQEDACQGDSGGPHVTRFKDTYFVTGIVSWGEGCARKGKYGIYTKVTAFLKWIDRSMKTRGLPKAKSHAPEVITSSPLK
Sequence of Coagulation Factor Xa, from uman plasma (P00742 41-179 limits assumed): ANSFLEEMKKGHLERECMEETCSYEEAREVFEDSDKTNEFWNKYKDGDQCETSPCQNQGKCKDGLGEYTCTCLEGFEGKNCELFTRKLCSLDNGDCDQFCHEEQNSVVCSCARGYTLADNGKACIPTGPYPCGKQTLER
Sequence of Chymotrypsin, from human pancreas (P17538 19-263): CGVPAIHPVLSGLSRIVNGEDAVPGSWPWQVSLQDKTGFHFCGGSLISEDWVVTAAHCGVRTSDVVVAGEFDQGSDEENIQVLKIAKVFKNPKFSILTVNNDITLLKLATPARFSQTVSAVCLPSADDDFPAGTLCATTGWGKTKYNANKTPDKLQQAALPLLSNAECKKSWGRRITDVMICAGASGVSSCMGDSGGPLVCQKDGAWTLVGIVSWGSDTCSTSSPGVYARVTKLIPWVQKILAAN

CC[C@H](C)[C@@H]1NC(=O)[C@H](CO)NC(=O)[C@H](C)NC(=O)[C@H]([C@@H](C)O)NC(=O)[C@@H]2CSSC[C@H](NC(=O)[C@H](CCC(N)=O)NC(=O)[C@@H]3CCCN3C(=O)[C@@H]3CCCN3C1=O)C(=O)N[C@@H](Cc1ccccc1)C(=O)N1CCC[C@@H]1C(=O)N1CCC[C@H]1C(=O)N[C@@H](CCc1ccccc1)C(=O)N2 [Ex. 146] (HELM PEPTIDE1{[O=C([C@H](CCc1ccccc1)N[*:1])[*:2]].C.T.A.S.I.P.P.Q.C.F.[dP].P}$PEPTIDE1,PEPTIDE1,2:R3-10:R3|PEPTIDE1,PEPTIDE1,1:R1-13:R2$$$V2.0)
FXa at 100 μM % [1]: 1% | IC50 [2]: 12 nM | Chymase at 100 μM % (Chymase, from human skin): 0% | Chymotrypsin at 100 μM % [3]: 87% | Tryptase At 100 μM % [4]: 22% | Trypsin at 100 μM % [5]: 3% | Thrombin at 100 μM % [6]: 11% | Cathepsin G at 100 μM % [7]: 1 at 100% | Urokinase at 100 μM % [8]: 0%

CCCCCCCC[C@@H]1NC(=O)[C@@H]2CCCN2C(=O)[C@H]2CCCN2C(=O)[C@H](CCC(N)=O)NC(=O)[C@@H]2CSSC[C@H](NC1=O)C(=O)N[C@@H]([C@@H](C)O)C(=O)N[C@@H](C)C(=O)N[C@@H](CO)C(=O)N[C@@H](CCCCCCCC)C(=O)N1CCC[C@H]1C(=O)N1CCC[C@H]1C(=O)N[C@@H](CCC(N)=O)C(=O)N2 [Ex. 148] (HELM PEPTIDE1{[CCCCCCCC[C@H](N[*:1])C(=O)[*:2]].C.T.A.S.[CCCCCCCC[C@H](N[*:1])C(=O)[*:2]].P.P.Q.C.Q.[dP].P}$PEPTIDE1,PEPTIDE1,2:R3-10:R3|PEPTIDE1,PEPTIDE1,1:R1-13:R2$$$V2.0)
FXa at 100 μM % [1]: 8% | IC50 [2]: 11 nM | Chymase at 100 μM % (Chymase, from human skin): 7% | Chymotrypsin at 100 μM % [3]: 91% | Tryptase At 100 μM % [4]: 30% | Trypsin at 100 μM % [5]: 9% | Thrombin at 100 μM % [6]: 32% | Cathepsin G at 100 μM % [7]: 52 at 100% | Urokinase at 100 μM % [8]: 12%

CCCCCCCC[C@@H]1NC(=O)[C@H](CO)NC(=O)[C@H](C)NC(=O)[C@H]([C@@H](C)O)NC(=O)[C@@H]2CSSC[C@H](NC(=O)[C@H](CCC(N)=O)NC(=O)[C@@H]3CCCN3C(=O)[C@@H]3CCCN3C1=O)C(=O)N[C@@H](CCC(N)=O)C(=O)N1CCC[C@@H]1C(=O)N1CCC[C@H]1C(=O)N[C@@H](CCc1ccccc1)C(=O)N2 [Ex. 153] (HELM PEPTIDE1{[O=C([C@H](CCc1ccccc1)N[*:1])[*:2]].C.T.A.S.[CCCCCCCC[C@H](N[*:1])C(=O)[*:2]].P.P.Q.C.Q.[dP].P}$PEPTIDE1,PEPTIDE1,2:R3-10:R3|PEPTIDE1,PEPTIDE1,1:R1-13:R2$$$V2.0)
FXa at 100 μM % [1]: 11% | IC50 [2]: 8.5 nM | Chymase at 100 μM % (Chymase, from human skin): 0% | Chymotrypsin at 100 μM % [3]: 84% | Tryptase At 100 μM % [4]: 9% | Trypsin at 100 μM % [5]: 8% | Thrombin at 100 μM % [6]: 16% | Cathepsin G at 100 μM % [7]: 56 at 100% | Urokinase at 100 μM % [8]: 16%

CCCCCCCC[C@@H]1NC(=O)[C@@H]2CCCN2C(=O)[C@H]2CCCN2C(=O)[C@H](Cc2ccc(O)cc2)NC(=O)[C@H]([C@@H](C)O)NC(=O)[C@H](CCC(N)=O)NC(=O)[C@@H]2CCCN2C(=O)[C@@H]2CCCN2C(=O)[C@H]([C@@H](C)CC)NC(=O)[C@H](CO)NC(=O)[C@H](C)NC(=O)[C@H]([C@@H](C)O)NC(=O)[C@H](CCC(N)=O)NC1=O [Ex. 154] (HELM PEPTIDE1{[CCCCCCCC[C@H](N[*:1])C(=O)[*:2]].Q.T.A.S.I.P.P.Q.T.Y.[dP].P}$PEPTIDE1,PEPTIDE1,1:R1-13:R2$$$V2.0)
FXa at 100 μM % [1]: 0% | IC50 [2]: 8.3 nM | Chymase at 100 μM % (Chymase, from human skin): 0% | Chymotrypsin at 100 μM % [3]: 4% | Tryptase At 100 μM % [4]: 15% | Trypsin at 100 μM % [5]: 0% | Thrombin at 100 μM % [6]: 7% | Cathepsin G at 100 μM % [7]: 27 at 100% | Urokinase at 100 μM % [8]: 1%

C[C@@H]1NC(=O)[C@H]([C@@H](C)O)NC(=O)[C@@H]2CSSC[C@H](NC(=O)[C@H](CCC(N)=O)NC(=O)[C@@H]3CCCN3C(=O)[C@@H]3CCCN3C(=O)[C@H](CC3CCCCC3)NC(=O)[C@H](CO)NC1=O)C(=O)N[C@@H](Cc1ccccc1)C(=O)N1CCC[C@@H]1C(=O)N1CCC[C@H]1C(=O)N[C@@H](CCc1ccccc1)C(=O)N2 [Ex. 155] (HELM PEPTIDE1{[O=C([C@H](CCc1ccccc1)N[*:1])[*:2]].C.T.A.S.[Cha].P.P.Q.C.F.[dP].P}$PEPTIDE1,PEPTIDE1,2:R3-10:R3|PEPTIDE1,PEPTIDE1,1:R1-13:R2$$$V2.0)
FXa at 100 μM % [1]: 9% | IC50 [2]: 8.2 nM | Chymase at 100 μM % (Chymase, from human skin): 3% | Chymotrypsin at 100 μM % [3]: 83% | Tryptase At 100 μM % [4]: 30% | Trypsin at 100 μM % [5]: 18% | Thrombin at 100 μM % [6]: 19% | Cathepsin G at 100 μM % [7]: 52 at 100% | Urokinase at 100 μM % [8]: 12%

CCCCCCCC[C@@H]1NC(=O)[C@@H]2CCCN2C(=O)[C@H]2CCCN2C(=O)[C@H](Cc2ccc(O)cc2)NC(=O)[C@H](CCCCN)NC(=O)[C@H](CCC(N)=O)NC(=O)[C@@H]2CCCN2C(=O)[C@@H]2CCCN2C(=O)[C@H]([C@@H](C)CC)NC(=O)[C@H](CO)NC(=O)[C@H](C)NC(=O)[C@H]([C@@H](C)O)NC(=O)[C@H](CCC(=O)O)NC1=O [Ex. 156] (HELM PEPTIDE1{[CCCCCCCC[C@H](N[*:1])C(=O)[*:2]].E.T.A.S.I.P.P.Q.K.Y.[dP].P}$PEPTIDE1,PEPTIDE1,1:R1-13:R2$$$V2.0)
FXa at 100 μM % [1]: 0% | IC50 [2]: 7.5 nM | Chymase at 100 μM % (Chymase, from human skin): 0% | Chymotrypsin at 100 μM % [3]: 5% | Tryptase At 100 μM % [4]: 15% | Trypsin at 100 μM % [5]: 0% | Thrombin at 100 μM % [6]: 17% | Cathepsin G at 100 μM % [7]: 46 at 100% | Urokinase at 100 μM % [8]: 7%

CCCCCCCC[C@@H]1NC(=O)[C@H](CO)NC(=O)[C@H](C)NC(=O)[C@H]([C@@H](C)O)NC(=O)[C@@H]2CSSC[C@H](NC(=O)[C@H](CCC(N)=O)NC(=O)[C@@H]3CCCN3C(=O)[C@@H]3CCCN3C1=O)C(=O)N[C@@H](Cc1ccc(O)cc1)C(=O)N1CCC[C@@H]1C(=O)N[C@@H](CCC(N)=O)C(=O)N[C@@H](CCCC)C(=O)N2 [compound 169] (HELM PEPTIDE1{[Nle].C.T.A.S.[CCCCCCCC[C@H](N[*:1])C(=O)[*:2]].P.P.Q.C.Y.[dP].Q}$PEPTIDE1,PEPTIDE1,2:R3-10:R3|PEPTIDE1,PEPTIDE1,1:R1-13:R2$$$V2.0)
FXa at 100 μM % [1]: 13.3% | IC50 [2]: 18 nM | Chymase at 100 μM % (Chymase, from human skin): 0% | Chymotrypsin at 100 μM % [3]: 79.6% | Tryptase At 100 μM % [4]: 4.2% | Trypsin at 100 μM % [5]: 10.8% | Thrombin at 100 μM % [6]: 20.6% | IC50 ([7]; Cathepsin G IC50): 20300 nM | Urokinase at 100 μM % [8]: 10.4%

CC[C@H](C)[C@@H]1NC(=O)[C@H](CO)NC(=O)[C@H](C)NC(=O)[C@H]([C@@H](C)O)NC(=O)[C@@H]2CSSC[C@H](NC(=O)[C@H](CCC(N)=O)NC(=O)[C@@H]3CCCN3C(=O)[C@@H]3CCCN3C1=O)C(=O)N[C@@H](Cc1ccc(O)cc1)C(=O)N[C@H](CCCCN)C(=O)N[C@@H](CCC(=O)O)C(=O)N[C@@H](CCc1ccccc1)C(=O)N2 [compound 174] (HELM PEPTIDE1{[O=C([C@H](CCc1ccccc1)N[*:1])[*:2]].C.T.A.S.I.P.P.Q.C.Y.[dK].E}$PEPTIDE1,PEPTIDE1,2:R3-10:R3|PEPTIDE1,PEPTIDE1,1:R1-13:R2$$$V2.0)
FXa at 100 μM % [1]: 3% | IC50 [2]: 12 nM | Chymase at 100 μM % (Chymase, from human skin): 0% | Chymotrypsin at 100 μM % [3]: 85% | Tryptase At 100 μM % [4]: 10% | Trypsin at 100 μM % [5]: 7% | Thrombin at 100 μM % [6]: 11% | Cathepsin G at 100 μM % [7]: 56 at 100% | Urokinase at 100 μM % [8]: 1%
